{"source": "patent US11643439B2", "about": "“Multi-target compound with anticoagulation and antiplatelet activity, preparation method therefor, and use thereof” (SHAANXI MICOT TECHNOLOGY LIMITED COMPANY, priority 2015, dated 2023)", "test_system": "ADP-induced human platelet aggregation", "test": "ADP-induced human platelet aggregation in vitro", "assay_type": "cell-based", "conditions": "human PRP, 3 × 10−6 mol/L", "note": "Bridge positions count the residues as written; N and C are the ends. Square brackets hold non-standard residues; d marks the D form. Peptide text beside a SMILES is read from it. hArg = N=C(N)NCCCC[C@H](N)C(=O)O; Mpa = O=C(O)CCS", "protocol": "The drawn blood was centrifuged at 810 rpm for 8 minutes to obtain platelet rich plasma (PRP), which was taken out, then the blood sample was further centrifuged at 3510 rpm for 8 minutes to obtain platelet poor plasma (PPP).\nDetermination of platelet aggregation: A platelet aggregation instrument was started up and preheated for 30 minutes, and then calibrated with PPP. Into the test cups 270 μl of PRP was added, and then 10 μl of polypeptide 1, polypeptide 2, polypeptide 3 or polypeptide 4 (1.0×10^−7 mol/L) and/or 20 μl of physiological saline were added respectively, till a total volume of 300 μl. After incubation for 5 min, 5 μl of inducer ADP and 5 μl of epinephrine were added to start the test. After 5 minutes, the test was completed, and the maximum aggregation rate within the 5 minutes was recorded, and the data and maps were printed."}
{"smiles": "N=C(N)NCCCC[C@@H]1NC(=O)CCSSC[C@@H](C(N)=O)NC(=O)[C@@H]2CCCN2C(=O)[C@H](Cc2c[nH]c3ccccc23)NC(=O)[C@H](CC(=O)O)NC(=O)CNC1=O", "note": "[Integrilin] ([Mpa][hArg]GDWPC-NH2; disulfide 1-7)", "values": [{"measurement": "inhibitory rate of platelet aggregation", "result": 100, "unit": "%"}]}
